# Results taken from ChEMBL document CHEMBL1201862, “PubChem BioAssay data set” (2004).
#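 Assay format: 96-well plates, 48-hour exposure. GI50 = concentration required for 50% inhibition of growth.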 The source made the active and inactive calls. No stated cut-off is given here; in the data, active = GI50 up to about 1.1 µM and inactive = higher.
# How the values were obtained:
# Test in all cases: NCI-60 cell line screen, 48 h
# [1] = tested on: SK-MEL-28
# [2] = tested on: NCI-H23
# [3] = tested on: A498
# [4] = tested on: 786-0
# [5] = tested on: NCI-H460
# [6] = tested on: NCI-H522
# [7] = tested on: SNB-75
# [8] = tested on: SK-MEL-2
# [9] = tested on: HCC 2998
# [10] = tested on: HCT-15
# [11] = tested on: SN12C
# [12] = tested on: M14
# [13] = tested on: HCT-116
# [14] = tested on: UO-31
# [15] = tested on: LOX IMVI
# [16] = tested on: SK-MEL-5
# [17] = tested on: OVCAR-8
# [18] = tested on: OVCAR-4
# [19] = tested on: SW-620
# [20] = tested on: UACC-257
# [21] = tested on: IGROV-1
# [22] = tested on: TK-10
# [23] = tested on: SR
# [24] = tested on: BT-549
# [25] = tested on: SF-295
# [26] = tested on: MDA-MB-231
# [27] = tested on: NCI/ADR-RES
# [28] = tested on: CCRF-CEM
# [29] = tested on: SF-268
# [30] = tested on: KM12
# [31] = tested on: OVCAR-3
# [32] = tested on: HL-60
# [33] = tested on: T47D
# [34] = tested on: MDA-MB-435
# [35] = tested on: RPMI-8226
# [36] = tested on: A549
# [37] = tested on: CAKI-1
# [38] = tested on: MOLT-4
# [39] = tested on: HOP-92
# [40] = tested on: RXF 393
# [41] = tested on: COLO 205
# [42] = tested on: HOP-62
# [43] = tested on: MDA-N
# [44] = tested on: Hs-578T
# [45] = tested on: OVCAR-5
# [46] = tested on: DU-145
# [47] = tested on: ACHN
# [48] = tested on: K562
# [49] = tested on: U-251
# [50] = tested on: EKVX
# [51] = tested on: HT-29
# [52] = tested on: Malme-3M
# [53] = tested on: SK-OV-3
# [54] = tested on: MCF7
# [55] = tested on: UACC-62
# [56] = tested on: SNB-19
# [57] = tested on: PC-3
# [58] = tested on: NCI-H226
# [59] = tested on: SF-539
structure (smiles),measurement,setting,value
CCOC(=O)O/N=C1/C(=C2/C(=O)Nc3ccccc32)Nc2ccccc21,GI50,[1],10.9 µM (inactive)
same,GI50,[2],4.47 µM (inactive)
same,GI50,[3],1.47 µM (inactive)
same,GI50,[4],5.92 µM (inactive)
same,GI50,[5],3.13 µM (inactive)
same,GI50,[6],8.53 µM (inactive)
same,GI50,[7],3.4 µM (inactive)
same,GI50,[8],2.29 µM (inactive)
same,GI50,[9],2.73 µM (inactive)
same,GI50,[10],2.7 µM
same,GI50,[11],4.41 µM (inactive)
same,GI50,[12],10.3 µM (inactive)
same,GI50,[13],3.03 µM (inactive)
same,GI50,[14],3.65 µM (inactive)
same,GI50,[15],4.8 µM (inactive)
same,GI50,[16],2.37 µM (inactive)
same,GI50,[17],5.83 µM (inactive)
same,GI50,[18],6.4 µM (inactive)
same,GI50,[19],5.21 µM (inactive)
same,GI50,[20],10.2 µM (inactive)
same,GI50,[21],4.34 µM (inactive)
same,GI50,[22],5.35 µM (inactive)
same,GI50,[23],3.61 µM (inactive)
same,GI50,[24],7.31 µM (inactive)
same,GI50,[25],8.73 µM (inactive)
same,GI50,[26],11.6 µM (inactive)
same,GI50,[27],4.83 µM (inactive)
same,GI50,[28],2.87 µM (inactive)
same,GI50,[29],5.73 µM (inactive)
same,GI50,[30],0.192 µM (active)
same,GI50,[31],2.15 µM (inactive)
same,GI50,[32],4.95 µM (inactive)
same,GI50,[33],3.93 µM (inactive)
same,GI50,[34],4.48 µM (inactive)
same,GI50,[35],10.8 µM (inactive)
same,GI50,[36],4.56 µM (inactive)
same,GI50,[37],1.86 µM (inactive)
same,GI50,[38],3.74 µM (inactive)
same,GI50,[39],22.3 µM (inactive)
same,GI50,[40],1.24 µM (inactive)
same,GI50,[41],15.5 µM (inactive)
same,GI50,[42],6.81 µM (inactive)
same,GI50,[43],3.91 µM (inactive)
same,GI50,[44],2.9 µM (inactive)
same,GI50,[45],16.5 µM (inactive)
same,GI50,[46],2.87 µM (inactive)
same,GI50,[47],4.41 µM (inactive)
same,GI50,[48],12.2 µM (inactive)
same,GI50,[49],9.14 µM (inactive)
same,GI50,[50],2.54 µM (inactive)
same,GI50,[51],10.1 µM (inactive)
same,GI50,[52],10 µM (inactive)
same,GI50,[53],1.59 µM (inactive)
same,GI50,[54],3.69 µM (inactive)
same,GI50,[55],8.32 µM (inactive)
same,GI50,[56],18.7 µM (inactive)
Cc1nc(C(N)=S)sc1C(=O)CC(=O)C(=O)Nc1cccc(Cl)c1C,GI50,[1],> 100 µM (inactive)
same,GI50,[2],> 100 µM (inactive)
same,GI50,[3],> 100 µM (inactive)
same,GI50,[4],> 100 µM (inactive)
same,GI50,[5],> 100 µM (inactive)
same,GI50,[6],> 100 µM (inactive)
same,GI50,[7],> 100 µM (inactive)
same,GI50,[8],> 100 µM (inactive)
same,GI50,[9],> 100 µM (inactive)
same,GI50,[10],> 100 µM
same,GI50,[11],> 100 µM (inactive)
same,GI50,[12],> 100 µM (inactive)
same,GI50,[13],> 100 µM (inactive)
same,GI50,[14],> 100 µM (inactive)
same,GI50,[15],> 100 µM (inactive)
same,GI50,[57],> 100 µM (inactive)
same,GI50,[16],> 100 µM (inactive)
same,GI50,[17],> 100 µM (inactive)
same,GI50,[18],> 100 µM (inactive)
same,GI50,[19],> 100 µM (inactive)
same,GI50,[58],> 100 µM (inactive)
same,GI50,[20],> 100 µM (inactive)
same,GI50,[21],> 100 µM (inactive)
same,GI50,[22],> 100 µM (inactive)
same,GI50,[23],> 100 µM (inactive)
same,GI50,[24],> 100 µM (inactive)
same,GI50,[25],> 100 µM (inactive)
same,GI50,[26],> 100 µM (inactive)
same,GI50,[27],> 100 µM (inactive)
same,GI50,[28],> 100 µM (inactive)
same,GI50,[29],> 100 µM (inactive)
same,GI50,[30],> 100 µM (inactive)
same,GI50,[31],> 100 µM (inactive)
same,GI50,[32],> 100 µM (inactive)
same,GI50,[33],> 100 µM (inactive)
same,GI50,[34],> 100 µM (inactive)
same,GI50,[35],> 100 µM (inactive)
same,GI50,[36],> 100 µM (inactive)
same,GI50,[59],> 100 µM (inactive)
same,GI50,[37],> 100 µM (inactive)
same,GI50,[38],> 100 µM (inactive)
same,GI50,[39],> 100 µM (inactive)
same,GI50,[40],> 100 µM (inactive)
same,GI50,[42],> 100 µM (inactive)
same,GI50,[43],> 100 µM (inactive)
same,GI50,[44],> 100 µM (inactive)
same,GI50,[45],> 100 µM (inactive)
same,GI50,[47],> 100 µM (inactive)
same,GI50,[48],> 100 µM (inactive)
same,GI50,[49],> 100 µM (inactive)
same,GI50,[50],> 100 µM (inactive)
same,GI50,[51],> 100 µM (inactive)
same,GI50,[52],> 100 µM (inactive)
same,GI50,[53],> 100 µM (inactive)
same,GI50,[54],> 100 µM (inactive)
same,GI50,[55],> 100 µM (inactive)
same,GI50,[56],> 100 µM (inactive)
